{"source": "patent US20070078185A1", "about": "“Methods and compositions for controlling invertebrate pests” (priority 2005, published 2007)", "key": {"C. elegans [1]": {"tested_on": "C. elegans", "test": "Egg-laying assay with exogenous amine on Petri plates", "type": "in vivo", "details": "wild-type animals, Petri plates with bacteria containing 20 mM tyramine", "method": "FIGS. 5A-SC are graphs showing that tdc-1 mutant nematodes are hyperactive in egg laying. […] Error bars indicate standard errors of the means. […] Single wild-type animals were transferred to Petri dishes with bacteria containing either no tyramine (n=13) or 20 mM tyramine (n=12). At the indicated times after transfer the number of eggs laid was counted. Error bars indicate standard errors ofthe means.\nWe therefore tested the effect of exogenous tyramine on egg laying behavior. Egg laying was inhibited on Petri plates containing 20 mM tyramine (FIG. 5C). […] Egg laying is regulated in part by the serotonergic HSN neurons, which induce muscle contraction of the vulva muscles (Trent et al., Genetics 104:619-647 (1983)).\nBehavioral assays were performed with young adults at room temperature (22-24° C.) and the different genotypes were scored in parallel on independent days. Egg-laying assays were performed as described by Koelle and Horvitz (Cell 84:115 (1996)). Suppression of head oscillations was tested by striking animals that were outside the bacterial lawn with a fine eyelash behind the posterior bulb of the pharynx; head oscillations were scored during backing response. Nose touch, osmotic avoidance touch were tested as previously described (see, for example, Way et al., Genes Dev. 3:1823-1833 (1989); or Bargmann et al., Cold Spring Harb. Symp. Quant. Biol. 55:529-538 (1990)). […]"}, "C. elegans [2]": {"tested_on": "C. elegans", "test": "In vivo response test: suppression of head oscillations in response to anterior touch, C. elegans on agar plates", "details": "compound added to C. elegans grown on agar plates at 0.3 mg/ml", "method": "Behavioral assays were performed with young adults at room temperature (22-24° C.) and the different genotypes were scored in parallel on independent days. Egg-laying assays were performed as described by Koelle and Horvitz (Cell 84:115 (1996)). Suppression of head oscillations was tested by striking animals that were outside the bacterial lawn with a fine eyelash behind the posterior bulb of the pharynx; head oscillations were scored during backing response. Nose touch, osmotic avoidance touch were tested as previously described (see, for example, Way et al., Genes Dev. 3:1823-1833 (1989); or Bargmann et al., Cold Spring Harb. Symp. Quant. Biol. 55:529-538 (1990)). […] Animals were tested twenty-four hours after they were picked as late L4. Laser-ablated animals were tested at least ten times. […] Laser ablated animals were tested at least 20 times. Reversal assays were performed as described by Tsalik et al., J. Neurobiol. 56:178-197 (2003). Synthesis of 4-hydrazinomethyl-benzene-1,3-diol (compound 1). [drawing 4]\nAlternatively, putative tyrosine decarboxylase inhibitors can be screened in vivo by observing its effect on invertebrates. […] Furthermore, a tyrosine decarboxylase inhibitor is expected to cause egg laying defects in nematodes, fruit flies, and other invertebrates. […]"}, "C. elegans [3]": {"tested_on": "C. elegans", "details": "exogenous octopamine (Horvitz et al., Science 216:1012-1014 (1982)); cited from earlier work"}}}
{"compound": "NCCc1ccc(O)cc1", "note": "[tyramine]", "values": [{"measurement": "effect of exogenous tyramine on egg laying", "setting": "C. elegans [1]", "result": "inhibited"}]}
{"compound": "NC(CO)C(=O)NNCc1ccc(O)cc1O", "note": "(racemic) [compound 2, N-(DL-seryl)-N′-(2,4,-dihydroxybenzyl) hydrazine]", "values": [{"measurement": "suppression of head oscillations in response to anterior touch", "setting": "C. elegans [2]", "result": "fail to suppress head oscillations"}]}
{"compound": "NCC(O)c1ccc(O)cc1", "note": "(stereo not drawn) [octopamine]", "values": [{"measurement": "effect of exogenous octopamine on egg laying", "setting": "C. elegans [3]", "result": "inhibitory effect"}]}
